Laboratory results published in patent US20260325485A1, “COMPOSITIONS AND METHODS FOR TREATING PANCREATITIS” (The United States Government as represented by the …, priority 2022, published 2026).
Entries after “also recorded” stand apart in the source; their conditions may differ. Residues, ends and D or L forms follow the SMILES beside them.

How the values were obtained:
pancreatic mitochondria = test: Cholesterol content of isolated pancreatic mitochondria in cerulein pancreatitis; type: in vivo, mouse; details: WT mice with CER-AP
Method: (§1) FIGS. 8A-8M show derangement of cholesterol metabolism in experimental pancreatitis. Characteristics of cholesterol metabolism were measured, as detailed in FIGS. 4A-4R, in pancreas of WT mice subjected to pancreatitis induced with cerulein (CER-AP), L-arginine (Arg-AP), or CDE diet (CDE-AP) (A, B, and E-G); ex vivo pancreatitis induced in WT mouse (C and I-M) or human acinar cells (D) with 100 nM CCK (CCK-AP) or 1 mM carbachol; and isolated pancreatic mitochondria (H). (B) Cholesterol ester (CE) heatmap; each column represents an individual mouse. (F) IB analysis of the indicated proteins. (G) LAL activity was measured by a fluorogenic assay (n=6 mice per condition). (H) Cholesterol content was measured by enzymatic assay. (I-M) Filipin colocalization with indicated proteins was quantified as detailed in FIGS. 2A-2L. […] Significance was determined by 2-tailed Student's t test (B, E, H, J, K, and M) or 1-way ANOVA followed by Tukey's multiple comparison test (A, C, and D). […]
Mitochondria were isolated from mouse pancreas and liver in a Ca2+-free medium in the presence of 1 mM EGTA, as in (3-5,13). The value of respiratory control ratio in these preparations, measured in the presence of succinate (quality control parameter), was greater than 3.0.
(§2) Total cholesterol content was measured with Cholesterol Assay kit per manufacturer's instructions. […]

pancreas [1] = test: Pancreatic mRNA expression and protein levels (qPCR, IB) in cerulein pancreatitis; type: in vivo, mouse
Method: (§3) FIGS. 8A-8M show derangement of cholesterol metabolism in experimental pancreatitis. Characteristics of cholesterol metabolism were measured, as detailed in FIGS. 4A-4R, in pancreas of WT mice subjected to pancreatitis induced with cerulein (CER-AP), L-arginine (Arg-AP), or CDE diet (CDE-AP) (A, B, and E-G); ex vivo pancreatitis induced in WT mouse (C and I-M) or human acinar cells (D) with 100 nM CCK (CCK-AP) or 1 mM carbachol; and isolated pancreatic mitochondria (H). (B) Cholesterol ester (CE) heatmap; each column represents an individual mouse. (F) IB analysis of the indicated proteins. (G) LAL activity was measured by a fluorogenic assay (n=6 mice per condition). (H) Cholesterol content was measured by enzymatic assay. (I-M) Filipin colocalization with indicated proteins was quantified as detailed in FIGS. 2A-2L. Each symbol in A, C-E, and H represents an individual mouse, or cell or mitochondria preparation (n=3-15 per condition). Each symbol in J, K, and M corresponds to 20-30 cells in a different field (n=10-20 fields from 3 cell preparations per condition). Values are mean±SEM. *P<0.05, **P<0.01, ***P<0.001 vs. the same parameter in control/untreated pancreas, acinar cells or isolated mitochondria. Significance was determined by 2-tailed Student's t test (B, E, H, J, K, and M) or 1-way ANOVA followed by Tukey's multiple comparison test (A, C, and D). Scale bars: 10 μm.
FIGS. 9A-9E show cerulein pancreatitis decreases pancreatic levels of GNPTAB and mediators of cholesterol trafficking through LE/Ly. (A, D, and E) IB analysis of the indicated proteins in pancreas of WT mice subjected to CER-AP and in Gnptab^−/− mice. NS, nonspecific band. (B and C) Cholesterol content was measured in pancreas of (B) WT mice that received daily i.p. injections of the NPC1 inhibitor U18666A (10 mg/kg) or vehicle for 15 days and (C) Lamp2^−/− mice. Each symbol in B, C, and E represents an individual mouse. Values are mean±SEM from 3 to 5 mice per condition. ***P<0.001 vs. the same parameter in WT control/untreated or saline-treated mice. Significance was determined by 2-tailed Student's t test (B and C) or 1-way ANOVA followed by Tukey's multiple comparison test (E).
(§4) Cerulein-induced (CER-AP) and L-arginine induced (Arg-AP) acute pancreatitis models were performed in 12-week-old C57BL/6 mice that received 7 hourly i.p. injections of 50 μg/kg cerulein or 3 hourly i.p. injections of 3.3 g/kg Arg; controls received physiologic saline injections. Mice were euthanized for analyses 7 hours after the first cerulein or 24 hours after the first Arg injection. Choline deficient, ethionine-supplemented (CDE) pancreatitis was induced in young (~5-weeks old) female mice fed either CDE or control diet. Mice were euthanized 72 hours after the diet initiation. These models have been described in detail (1-7).
Immunoblots were developed using enhanced chemiluminescence detection kit (Pierce), and band intensities were quantified by densitometry using FluorChem HD2 imaging system (Alpha Innotech/ProteinSimple).
qPCR. Total RNA was isolated from tissue or cells using QIAGEN RNeasy Plus kit according to the manufacturer's instructions, quantified in NanoDrop, and converted to cDNA with high-capacity cDNA reverse transcription kit. KAPA SYBR FAST qPCR Master Mix kit and a LightCycler 480 were used for quantitative PCR. Fold change related to the control group was calculated using the 2ΔΔCt method with Rplp0/36B4 as the reference gene. Primers are available upon request.

[2] = system: lysosomal acid lipase (LAL); test: Lysosomal acid lipase (LAL) activity in cerulein pancreatitis; type: in vivo, mouse; details: WT mice with CER-AP
Method: as §1
Activities of cathepsin (Cat) B and L, caspase-3, trypsin, and lysosomal acid lipase (LAL) were measured in pancreatic tissue or cell homogenates and subcellular fractions with fluorogenic assays using substrates specific for CatB (Z-Arg-Arg-AMC), CatL (Z-Phe-Arg-AMC), caspase-3-like ([…]), trypsin (Boc-Gln-Ala-Arg-AMC), as previously described (1-4, 6, 7); and for LAL (4-methylumbelliferyl oleate), as in (17). […]

[3] = Serum cholesterol in cerulein pancreatitis; type: in vivo, mouse; details: CER-AP
Method: as §4
(§5) Total cholesterol content was measured with Cholesterol Assay kit per manufacturer's instructions. Samples of mouse pancreas and liver, cell pellet homogenates, subcellular fractions, isolated mitochondria, and serum were diluted in the reaction buffer containing cholesterol probe and incubated at 37° C. for 1 h in the dark. To measure total cholesterol, the samples were subjected to digestion with cholesterol esterase. To measure non-esterified cholesterol, the esterase was omitted from the assay.

pancreas [4] = test: Pancreatic total cholesterol and lipids in acute pancreatitis models in WT mice; type: in vivo, mouse
Method: as §3
Parameters of cholesterol metabolism were measured in (A, B, E, F) pancreas of mice subjected to pancreatitis induced with cerulean (CER-AP), L-arginine (Arg-AP), or combination of EtOH+palmitoleic acid (EtOH+POA); and (C) ex-vivo models on mouse and human acinar cells treated for 1 h with 100 nM CCK, […] or 500 μM TLCS. […] (B, C) Total cholesterol content was measured with cholesterol assay kit (Abcam, ab65390). […] Signficance was determined by 2-tailed student's t test. […]
as §2
Triglycerides (TAG) content was measured using Triglyceride Assay kit. […]

pancreas [5] = details: pharmacologic autophagy enhancer; cited from earlier work
[6] = system: mouse pancreatic acinar cells; test: Ex-vivo CCK-AP in mouse pancreatic acinar cells treated with simvastatin or MCD; type: cell-based; details: simvastatin 4 μM, 3 h or MCD 10 mM, 1 h
Method: FIGS. 26A-26D preventing cholesterol overload ameliorates ex-vivo pancreatitis. Mouse pancreatic acinar cells were incubated (A, B) with simvastatin (4 μM, 3 h) or (C, D) cholesterol chelator, methyl-β-cyclodextrin (MCD; 10 mM, 1 h) and then subjected to CCK-AP for 1 (D) or 3 h (A, B). Cholesterol content (A, C) necrosis (B), and trypsin activity (D) were measured. Each symbol represents an individual cell preparation. Values are mean±SEM*p<0/05, **p<0.01 vs control; #p<0.05 ##p<0.01; vs CCK, no inhibitor.
(§6) Ex vivo pancreatitis models were performed on mouse and human acinar cells, and human pancreas slices by incubation with supramaximal CCK (100 nM) or carbachol (1 mM), as described previously (80, 81).
(§7) Activities of cathepsin (Cat) B and L, caspase-3, trypsin, and lysosomal acid lipase (LAL) were measured in pancreatic tissue or cell homogenates and subcellular fractions with fluorogenic assays using substrates specific for CatB (Z-Arg-Arg-AMC), CatL (Z-Phe-Arg-AMC), caspase-3-like ([…]), trypsin (Boc-Gln-Ala-Arg-AMC), as previously described (1-4, 6, 7); and for LAL (4-methylumbelliferyl oleate), as in (17). In measurements of CatL activity, the assay buffer also contained 50 μM CA-074me, a CatB inhibitor. LAL activity was measured in the absence and presence of the LAL inhibitor lalistat (100 μM) as the difference between these values (17).
as §5

trypsin [7] = test: Trypsin activity in Gnptab−/− acinar cells; type: cell-based, mouse; details: Gnptab−/− acinar cells, cholesterol chelator MCD
Method: FIGS. 6A-6R show mechanisms mediating increased trypsin activity in Gnptab−/− pancreas. Trypsin activity and its regulation were analyzed in pancreatic (A, C, and D) tissue, (B and P-R) acinar cells, (E-H and O) lobules, and (I-N) subcellular fractions. In B, acinar cells were incubated for 3 hours without and with 20 nM BafAl or 50 μM CatB inhibitor CA-074Me; in P-R, with the cholesterol chelator methyl-β-cyclodextrin (MCD) at the indicated concentrations. In E-H, pancreatic lobules were double stained for TAP and LC3 or LAMP2; in O, for TAP and filipin. Quantitative colocalization analysis was done as detailed in FIG. 2. Each symbol in A, B, J-N, Q, and R represents an individual mouse or cell preparation (n=3-8 per condition). Each symbol in D, G, and H corresponds to 20 to 30 cells in a different field (n=9-20 fields from 3 WT and 3 KO mice or lobule preparations). Values are mean±SEM. **P<0.01, ***P<0.001 vs. WT tissue/lobules (A, G, and H) or corresponding WT subcellular fraction (K and M). ##P<0.01 vs. no inhibitors (B) or MCD (Q and R). ††P<0.01, †††P<0.001 vs. the other two fractions (L and N). Significance was determined by 2-tailed Student's t test (A, G, and H) or 1-way ANOVA followed by Tukey's multiple comparison test (B, K-N, Q, and R). Scale bars: 10 μm.
as §7

trypsin [8] = test: Trypsin activity in WT mouse acinar cells without and with CCK; type: cell-based; details: MCD 10 mM, 1 hour, 100 nM CCK
Method: FIGS. 10A-10N show deranged cholesterol metabolism causes acinar cell damage, while its normalization ameliorates experimental pancreatitis. (A-D) Cholesterol content and trypsin activity were measured (per mg protein) in WT mouse acinar cells incubated for 1 hour without and with methyl-β-cyclodextrin (MCD; 10 mM) or cholesterol-loaded MCD (MCD-Chol; 200 μg/mL), in the presence or absence of 100 nM CCK. Values are expressed relative to those in cells without MCD/MCD-Chol. (E-J) WT mice received daily i.p. injections of the LXR agonist T0901317 (T09), simvastatin (Sim; 20 mg/kg each), or vehicle. On day 4, mice were subjected to CER-AP and pancreata collected for analyses (see also FIG. 20). Cholesterol content (E), trypsin activity (F), and pancreas histopathology (H&E staining; G) were measured. (H, I, L, and N) IB analysis of markers/mediators of autophagy (LC3, p62), ER stress (CHOP, GRP-78), and mitophagy (Parkin). Ub, ubiquitylated proteins. (J) Mitochondrial fragmentation was assessed by immunostaining for Tom20, as detailed in FIG. 7G. […] Pancreas histopathology (H&E staining; M) and levels of autophagy markers/mediators (N) were measured. […] Significance was determined by 2-tailed Student's t test (A-D) or 1-way ANOVA followed by Tukey's multiple comparison test (E, F, and I). […]

mouse acinar cells [9] = test: Total cholesterol content of mouse acinar cells (ex vivo pancreatitis models or cholesterol chelator); type: cell-based; details: Gnptab−/− acinar cells
Method: as §3
Parameters of cholesterol metabolism were measured in (A, B, E, F) pancreas of mice subjected to pancreatitis induced with cerulean (CER-AP), L-arginine (Arg-AP), or combination of EtOH+palmitoleic acid (EtOH+POA); and (C) ex-vivo models on mouse and human acinar cells treated for 1 h with 100 nM CCK, […] or 500 μM TLCS. In (A), each column in CE heatmap represents an individual mouse. (B, C) Total cholesterol content was measured with cholesterol assay kit (Abcam, ab65390). […] Each symbol corresponds to 20-30 cells in each of 8 high-expression (qPCR) of proteins regulating cholesterol synthesis (4 mice/group). (B-D) Each symbol represents an individual animal or cell preparation. (A-D, F) Values are mean±SE (*p<0.05, **p<0.01, ***p<0.001 vs saline or control). Signficance was determined by 2-tailed student's t test.
as §6, §5
Fluorescence intensity (for cholesterol) and absorbance (for TAG) were measured in a Tecan microplate reader. Each measurement was in duplicate, and the values were normalized per mg total protein in the sample.

mouse acinar cells [10] = details: cited from earlier work

Molecule: CSCC[C@H](NC(=O)[C@H](Cc1c[nH]c2ccccc12)NC(=O)CNC(=O)[C@@H](NC(=O)[C@H](Cc1ccc(OS(=O)(=O)O)cc1)NC(=O)[C@H](CC(=O)O)NC(=O)[C@H](CCC(N)=O)NC(=O)[C@@H]1CCC(=O)N1)[C@@H](C)O)C(=O)N[C@@H](CC(=O)O)C(=O)N[C@@H](Cc1ccccc1)C(N)=O [cerulein] (HELM PEPTIDE1{[Glp].Q.D.[O=C([C@H](Cc1ccc(OS(=O)(=O)O)cc1)N[*:1])[*:2]].T.G.W.M.D.F.[am]}$$$$V2.0)
- mitochondrial cholesterol (pancreatic mitochondria): elevated
- decrease in pancreatic GNPTAB α-subunit protein level (pancreas [1]; CER-AP): approximately 5 fold
- pancreatic LAMP2 levels (pancreas [1]; CER-AP): greatly decrease
- LDLR protein level (pancreas [1]; WT mice with CER-AP): increased
- SREBP2 protein level (pancreas [1]; WT mice with CER-AP): increased
- pancreatic NPC1 (pancreas [1]; WT mice with CER-AP): greatly decreased
- pancreatic mRNA expression for enzymes mediating cholesterol synthesis (pancreas [1]; WT mice with CER-AP): upregulation
- NPC2 levels (pancreas [1]; WT mice with CER-AP, listed as CER): no change; also recorded: not reduced
- LAL activity [2]: increased
- serum cholesterol levels [3]: did not change
- pancreatic total cholesterol, AP models (pancreas [4]; Arg-AP, CER-AP or CDE-AP): increases
- pancreatic triglycerides in CER-AP (pancreas [4]; CER-AP): unchanged

Molecule: OC[C@H]1O[C@H](O[C@H]2O[C@H](CO)[C@@H](O)[C@H](O)[C@H]2O)[C@H](O)[C@@H](O)[C@@H]1O [trehalose]
- pancreas injury in AP models (pancreas [5]): largely prevented

Molecule: methyl-β-cyclodextrin [MCD]
- cholesterol overload in ex-vivo CCK-AP [6]: Reducing
- extent of necrosis in ex-vivo CCK-AP [6]: greatly decreased
- trypsinogen activation in ex-vivo CCK-AP [6]: greatly decreased
- Trypsin activity, KO cells, MCD (trypsin [7]): greatly decreased
- CCK-induced trypsinogen activation (trypsin [8]): reduced
- Resistance of Gnptab−/− acinar cells to MCD (mouse acinar cells [9]): highly resistant
- MCD concentration at which cholesterol-reducing effect is evident (mouse acinar cells [9]; only at this concentration): 50 mM
- usual cholesterol-reducing MCD concentration (mouse acinar cells [10]): 1 to 5 mM
